Measurements reported in patent publication US8835472B2, “Compounds, pharmaceutical compositions and uses thereof” (Boehringer Ingelheim International GmbH, priority 2010, dated 2014).

What follows are compounds tested against human ACC2 (Homo sapiens (Human), UniProt O00763) (assay: ACC2 assay, spectrophotometric 384 well assay (NADH-linked, coupled lactate dehydrogenase/pyruvate kinase reaction)). Conditions: hACC2 construct lacking the 128 N-terminal amino acids; 25° C., 340 nm over 15 minutes.
Type: biochemical
Outline: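 N-terminally truncated human ACC2 (lacking 128 residues) expressed in insect cells; coupled PK/LDH read-out of ADP as NADH loss at 340 nm, 15 min, 25 °C. Tris pH 7.5 with citrate and KHCO3; 200 μM acetyl-CoA, 500 μM ATP, 1% DMSO.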

Chain of human ACC2 (O00763 129-2458): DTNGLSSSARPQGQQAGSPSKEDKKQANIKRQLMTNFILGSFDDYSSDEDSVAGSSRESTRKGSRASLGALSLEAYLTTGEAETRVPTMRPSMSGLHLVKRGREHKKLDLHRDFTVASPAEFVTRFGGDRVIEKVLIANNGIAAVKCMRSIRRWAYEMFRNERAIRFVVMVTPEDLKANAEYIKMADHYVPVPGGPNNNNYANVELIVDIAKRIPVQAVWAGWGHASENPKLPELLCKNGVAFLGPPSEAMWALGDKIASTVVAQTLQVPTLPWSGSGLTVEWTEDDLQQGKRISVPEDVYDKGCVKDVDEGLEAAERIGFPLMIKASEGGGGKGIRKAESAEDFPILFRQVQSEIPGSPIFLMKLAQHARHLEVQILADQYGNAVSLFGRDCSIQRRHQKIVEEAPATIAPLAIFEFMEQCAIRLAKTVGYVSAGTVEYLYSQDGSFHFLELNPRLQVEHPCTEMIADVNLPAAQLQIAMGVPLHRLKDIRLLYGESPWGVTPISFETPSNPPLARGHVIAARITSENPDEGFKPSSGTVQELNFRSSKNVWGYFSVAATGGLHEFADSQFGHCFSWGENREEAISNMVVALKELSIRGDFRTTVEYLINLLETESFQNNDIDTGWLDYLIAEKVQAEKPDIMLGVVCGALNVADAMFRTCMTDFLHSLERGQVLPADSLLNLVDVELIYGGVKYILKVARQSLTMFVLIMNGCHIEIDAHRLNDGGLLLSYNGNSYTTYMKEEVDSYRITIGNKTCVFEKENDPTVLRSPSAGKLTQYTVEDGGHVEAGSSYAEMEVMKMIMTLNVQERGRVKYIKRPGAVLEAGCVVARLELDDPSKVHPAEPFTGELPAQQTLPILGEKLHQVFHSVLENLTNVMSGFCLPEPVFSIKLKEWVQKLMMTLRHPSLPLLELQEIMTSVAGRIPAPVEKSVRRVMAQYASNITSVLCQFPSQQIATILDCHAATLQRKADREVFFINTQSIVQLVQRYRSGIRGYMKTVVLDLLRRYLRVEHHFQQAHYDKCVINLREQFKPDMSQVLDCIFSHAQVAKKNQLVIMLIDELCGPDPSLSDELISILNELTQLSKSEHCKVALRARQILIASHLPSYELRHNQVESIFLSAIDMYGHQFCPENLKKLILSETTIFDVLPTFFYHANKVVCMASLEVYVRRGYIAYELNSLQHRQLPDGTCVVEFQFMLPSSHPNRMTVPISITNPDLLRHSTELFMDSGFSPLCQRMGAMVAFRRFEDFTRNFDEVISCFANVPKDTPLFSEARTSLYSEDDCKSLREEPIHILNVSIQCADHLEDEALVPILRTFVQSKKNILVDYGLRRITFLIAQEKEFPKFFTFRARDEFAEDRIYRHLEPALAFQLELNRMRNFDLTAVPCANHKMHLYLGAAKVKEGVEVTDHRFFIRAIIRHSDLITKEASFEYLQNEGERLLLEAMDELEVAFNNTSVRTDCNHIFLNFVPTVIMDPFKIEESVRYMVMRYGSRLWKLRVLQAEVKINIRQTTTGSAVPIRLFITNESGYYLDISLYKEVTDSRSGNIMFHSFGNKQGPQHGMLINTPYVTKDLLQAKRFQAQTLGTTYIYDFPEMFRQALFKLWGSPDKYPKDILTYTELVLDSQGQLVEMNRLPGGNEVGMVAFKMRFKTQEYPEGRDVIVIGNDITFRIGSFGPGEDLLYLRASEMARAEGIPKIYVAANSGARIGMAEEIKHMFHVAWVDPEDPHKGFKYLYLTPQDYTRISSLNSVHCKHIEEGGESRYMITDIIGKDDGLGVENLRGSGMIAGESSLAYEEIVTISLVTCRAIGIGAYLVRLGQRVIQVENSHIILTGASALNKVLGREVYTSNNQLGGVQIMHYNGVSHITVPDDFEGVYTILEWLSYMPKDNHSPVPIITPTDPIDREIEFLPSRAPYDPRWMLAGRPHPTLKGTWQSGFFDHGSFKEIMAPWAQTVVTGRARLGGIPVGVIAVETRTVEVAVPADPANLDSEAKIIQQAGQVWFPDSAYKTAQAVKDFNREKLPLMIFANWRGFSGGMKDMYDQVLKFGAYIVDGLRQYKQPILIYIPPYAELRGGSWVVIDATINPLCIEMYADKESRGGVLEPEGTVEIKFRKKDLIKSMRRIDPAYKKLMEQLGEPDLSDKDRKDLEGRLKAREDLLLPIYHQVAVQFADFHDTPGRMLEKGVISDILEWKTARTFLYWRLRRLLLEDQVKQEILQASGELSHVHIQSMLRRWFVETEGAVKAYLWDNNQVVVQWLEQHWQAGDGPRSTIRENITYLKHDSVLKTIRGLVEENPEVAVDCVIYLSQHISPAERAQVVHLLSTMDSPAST

| Compound | IC50 [nM] |
| --- | --- |
| CC(=O)NC(C)Cc1ccc(C#Cc2cccc(C(=O)N3CCC(c4ccncc4)C3)c2)cc1 (centres unmarked) [Example 8.31] | 14500 |
| CC(=O)NC(C)Cc1ccc(C#Cc2cccc(C(=O)N3CCCCC3)c2)cc1 (centres unmarked) [Example 8.32] | 2100 |
| CC(=O)NC(C)Cc1ccc(C#Cc2cccc(C(=O)N(C)C3CCCC3)c2)cc1 (centres unmarked) [Example 8.33] | 2000 |
| CC(=O)NC(C)Cc1ccc(C#Cc2cccc(C(=O)NC3CCC3)c2)cc1 (centres unmarked) [Example 8.34] | 1200 |
| CCC(C)NC(=O)c1cccc(C#Cc2ccc(CC(C)NC(C)=O)cc2)c1 (centres unmarked) [Example 8.35] | 2400 |
| CC(=O)NC(C)Cc1ccc(C#Cc2cccc(C(=O)N3CCC(C)(C)CC3)c2)cc1 (centres unmarked) [Example 8.37] | 1600 |
| CCNC(=O)c1cccc(C#Cc2ccc(CC(C)NC(C)=O)cc2)c1 (centres unmarked) [Example 8.38] | 14300 |
| CC(=O)NC(C)Cc1ccc(C#Cc2cccc(C(=O)N(C)Cc3ccncc3)c2)cc1 (centres unmarked) [Example 8.39] | 13400 |
| CC(=O)NC(C)Cc1ccc(C#Cc2cccc(C(=O)N(C)c3ccccc3)c2)cc1 (centres unmarked) [Example 8.40] | 6700 |
| CC(=O)NC(C)Cc1ccc(C#Cc2cccc(C(=O)NC(C)c3ccccc3)c2)cc1 (centres unmarked) [Example 8.41] | 23300 |
| CC(=O)NC(C)Cc1ccc(C#Cc2cccc(C(=O)N3Cc4ccccc4C3)c2)cc1 (centres unmarked) [Example 8.42] | 30000 |
| CC(=O)NC(C)Cc1ccc(C#Cc2ccc(C(=O)N(C)C)cc2)cc1 (centres unmarked) [Example 8.43] | 3900 |
| CNC(=O)c1ccc(C#Cc2ccc(CC(C)NC(C)=O)cc2)cc1 (centres unmarked) [Example 8.44] | 22100 |
| CC(=O)NC(C)Cc1ccc(C#Cc2ccc(C(=O)N3CCCC3)cc2)cc1 (centres unmarked) [Example 8.45] | 1400 |
| CC(=O)NC(C)Cc1ccc(C#Cc2ccc(C(=O)N3CCN(C)CC3)cc2)cc1 (centres unmarked) [Example 8.46] | 11300 |
| CC(=O)NC(C)Cc1ccc(C#Cc2cccc(C(=O)N(C)CC(=O)OC(C)(C)C)c2)cc1 (centres unmarked) [Example 8.47] | 12100 |
| CC(=O)NC(C)Cc1ccc(C#Cc2cccc(C(=O)N3CCCC3)c2)cc1 (centres unmarked) [Example 8.48] | 6200 |
| CC(=O)NC(C)Cc1ccc(C#Cc2cccc(C(=O)N3CCC(C(=O)OC(C)(C)C)C3)c2)cc1 (centres unmarked) [Example 8.49] | 22000 |
| CC(=O)NC(C)Cc1ccc(C#Cc2cccc(C(=O)N3CCc4ccccc4C3)c2)cc1 (centres unmarked) [Example 8.51] | 30000 |
| CC(=O)NC(C)Cc1ccc(C#Cc2cccc(C(=O)N3CCN(C)CC3)c2)cc1 (centres unmarked) [Example 8.54] | 25100 |
| CCC(CC)Oc1ccc(C#Cc2ccc(CC(C)NC(C)=O)cc2)cc1 (centres unmarked) [Example 9.1, N-(1-(4-((4-(pentan-3yloxy)phenyl)ethynyl)phenyl)propan-2-yl)acetamide] | 220 |
| CC(=O)NC(C)Cc1ccc(C#Cc2ccc(OC3CCCC3)cc2)cc1 (centres unmarked) [Example 9.2] | 100 |
| CCCCOc1ccc(C#Cc2ccc(CC(C)NC(C)=O)cc2)cc1 (centres unmarked) [Example 9.3] | 90 |
| COCCOc1ccc(C#Cc2ccc(CC(C)NC(C)=O)cc2)cc1 (centres unmarked) [Example 9.4] | 610 |
| CC(=O)NC(C)Cc1ccc(C#Cc2ccc(OCCN3CCCCC3)cc2)cc1 (centres unmarked) [Example 9.5] | 22100 |

| Compound | IC50 [nM] |
| --- | --- |
| CC(=O)NC(C)Cc1ccc(C#Cc2ccc(OCCN3CCOCC3)cc2)cc1 (centres unmarked) [Example 9.6] | 9400 |
| CC(=O)NC(C)Cc1ccc(C#Cc2ccc(OC3CCN(C)C3)cc2)cc1 (centres unmarked) [Example 9.7] | 1900 |
| CCC(CC)Oc1cccc(C#Cc2ccc(CC(C)NC(C)=O)cc2)c1 (centres unmarked) [Example 9.8] | 810 |
| CC(=O)NC(C)Cc1ccc(C#Cc2cccc(OCCN3CCCCC3)c2)cc1 (centres unmarked) [Example 9.9] | 9200 |
| CC(=O)NC(C)Cc1ccc(C#Cc2ccc(OC3CNC3)cc2)cc1 (centres unmarked) [Example 9.10] | 12200 |
| CC(=O)NC(C)Cc1ccc(C#Cc2ccc(OCC3(C)CC3)cc2)cc1 (centres unmarked) [Example 9.11] | 180 |
| CC(=O)NC(C)Cc1ccc(C#Cc2ccc(OC3CCOCC3)cc2)cc1 (centres unmarked) [Example 9.12] | 160 |
| COCCCOc1cccc(C#Cc2ccc(CC(C)NC(C)=O)cc2)c1 (centres unmarked) [Example 9.13] | 630 |
| CC(=O)NC(C)Cc1ccc(C#Cc2cccc(OCc3cn(C)cn3)c2)cc1 (centres unmarked) [Example 9.14] | 1600 |
| CC(=O)NC(C)Cc1ccc(C#Cc2cccc(OCc3c[nH]cn3)c2)cc1 (centres unmarked) [Example 9.15] | 2100 |
| CC(=O)NC(C)Cc1ccc(C#Cc2ccc(OCc3ccco3)cc2)cc1 (centres unmarked) [Example 9.16] | 260 |
| CC(=O)NC(C)Cc1ccc(C#Cc2ccc(OCC3CCCCO3)cc2)cc1 (centres unmarked) [Example 9.17] | 610 |
| CCN(CC)CCOc1ccc(C#Cc2ccc(CC(C)NC(C)=O)cc2)cc1 (centres unmarked) [Example 9.18] | 14900 |
| CCOCCOc1ccc(C#Cc2ccc(CC(C)NC(C)=O)cc2)cc1 (centres unmarked) [Example 9.19] | 280 |
| CC(=O)NC(C)Cc1ccc(C#Cc2ccc(OCC3CC3)cc2)cc1 (centres unmarked) [Example 9.20] | 80 |
| CC(=O)NC(C)Cc1ccc(C#Cc2ccc(OCCC3CC3)cc2)cc1 (centres unmarked) [Example 9.21] | 60 |
| CC(=O)NC(C)Cc1ccc(C#Cc2ccc(OCC(F)F)cc2)cc1 (centres unmarked) [Example 9.22] | 240 |
| CC(=O)NC(C)Cc1ccc(C#Cc2ccc(OCCc3ccncc3)cc2)cc1 (centres unmarked) [Example 9.23] | 400 |
| CC(=O)NC(C)Cc1ccc(C#Cc2ccc(OCC3CC3C)cc2)cc1 (centres unmarked) [Example 9.24] | 200 |
| CC(=O)NC(C)Cc1ccc(C#Cc2ccc(OC(C)c3ccncc3)cc2)cc1 (centres unmarked) [Example 9.25] | 2500 |
| CC(=O)NC(C)Cc1ccc(C#Cc2ccc(OCc3ccoc3)cc2)cc1 (centres unmarked) [Example 9.26] | 250 |
| CC(=O)NC(C)Cc1ccc(C#Cc2ccc(OCc3cc(C)on3)cc2)cc1 (centres unmarked) [Example 9.27] | 640 |
| CC(=O)NC(C)Cc1ccc(C#Cc2ccc(OCc3cncs3)cc2)cc1 (centres unmarked) [Example 9.28] | 690 |
| CC(=O)NC(C)Cc1ccc(C#Cc2ccc(OC3CCCOC3)cc2)cc1 (centres unmarked) [Example 9.29] | 190 |
| COCCCOc1ccc(C#Cc2ccc(CC(C)NC(C)=O)cc2)cc1 (centres unmarked) [Example 9.30] | 230 |

| Compound | IC50 [nM] |
| --- | --- |
| CC(=O)NC(C)Cc1ccc(C#Cc2ccc(OCC3CCOCC3)cc2)cc1 (centres unmarked) [Example 9.31] | 550 |
| CC(=O)NC(C)Cc1ccc(C#Cc2ccc(OCCC(F)(F)F)cc2)cc1 (centres unmarked) [Example 9.32] | 100 |
| CC(=O)NC(C)Cc1ccc(C#Cc2ccc(OCC3(C)COC3)cc2)cc1 (centres unmarked) [Example 9.33] | 340 |
| COCCn1cncc1COc1ccc(C#Cc2ccc(CC(C)NC(C)=O)cc2)cc1 (centres unmarked) [Example 9.34] | 6400 |
| CCC(COC)Oc1ccc(C#Cc2ccc(CC(C)NC(C)=O)cc2)cc1 (centres unmarked) [Example 9.35] | 660 |
| CC(=O)NC(C)Cc1ccc(C#Cc2ccc(OCCc3cn[nH]c3)cc2)cc1 (centres unmarked) [Example 9.36] | 420 |
| CC(=O)NC(C)Cc1ccc(C#Cc2ccc(OCCn3ccnc3)cc2)cc1 (centres unmarked) [Example 9.37] | 520 |
| CC(=O)NC(C)Cc1ccc(C#Cc2ccc(OCc3c[nH]cn3)cc2)cc1 (centres unmarked) [Example 9.38] | 2600 |
| CC(=O)NC(C)Cc1ccc(C#Cc2ccc(OCC(C)F)cc2)cc1 (centres unmarked) [Example 9.39] | 180 |
| CC(=O)NC(C)Cc1ccc(C#Cc2ccc(OCC3CC3(F)F)cc2)cc1 (centres unmarked) [Example 9.40] | 50 |
| CC(=O)NC(C)Cc1ccc(C#Cc2ccc(OCc3cnco3)cc2)cc1 (centres unmarked) [Example 9.41] | 500 |
| CC(=O)NC(C)Cc1ccc(C#Cc2ccc(OCc3cccnc3)cc2)cc1 (centres unmarked) [Example 9.42] | 630 |
| CC(=O)NC(C)Cc1ccc(C#Cc2ccc(Oc3cncnc3)cc2)cc1 (centres unmarked) [Example 10.1, N-(1-(4-((4-(Pyrimidin-5-yloxy)phenyl)ethynyl)phenyl)propan-2-yl)acetamide] | 190 |
| CC(=O)NC(C)Cc1ccc(C#Cc2ccc(Oc3ccncc3)cc2)cc1 (centres unmarked) [Example 10.2] | 1200 |
| CC(=O)NC(C)Cc1ccc(C#Cc2cccc(Oc3cncnc3)c2)cc1 (centres unmarked) [Example 10.3] | 1800 |
| COCCN(C)c1nccc(C#Cc2ccc(CC(C)NC(C)=O)cc2)n1 (centres unmarked) [Example 11.1, N-(1-(4-((2-((2-Methoxyethyl)(methyl)amino)pyrimidin-4-yl)ethynyl)phenyl)propan-2-yl)acetamide] | 1200 |
| CC(=O)NC(C)Cc1ccc(C#Cc2ccnc(N(C)Cc3ccncc3)n2)cc1 (centres unmarked) [Example 11.2] | 30000 |
| CCCNc1nccc(C#Cc2ccc(CC(C)NC(C)=O)cc2)n1 (centres unmarked) [Example 11.3] | 2300 |
| CCN(C)c1nccc(C#Cc2ccc(CC(C)NC(C)=O)cc2)n1 (centres unmarked) [Example 11.4] | 530 |
| COc1ccc(Nc2nccc(C#Cc3ccc(CC(C)NC(C)=O)cc3)n2)cn1 (centres unmarked) [Example 11.5] | 7200 |
| CC(=O)NC(C)Cc1ccc(C#Cc2ccnc(N(C)c3ccccc3)n2)cc1 (centres unmarked) [Example 11.6] | 930 |
| CC(=O)NC(C)Cc1ccc(C#Cc2ccnc(NC(C)C)n2)cc1 (centres unmarked) [Example 11.7] | 12700 |
| CC(=O)NC(C)Cc1ccc(C#Cc2ccnc(N(C)C(C)C)n2)cc1 (centres unmarked) [Example 11.8] | 750 |
| CC(=O)NC(C)Cc1ccc(C#Cc2ccnc(N(C)C3CCC(O)CC3)n2)cc1 (centres unmarked) [Example 11.9] | 4000 |
